Measured values: patent US20180265934A1, “COINCIDENCE REPORTER GENE SYSTEM” (The United States of America, as represented by the …, priority 2013, published 2018)
Like-named read-outs stand apart in the source and are kept apart here.

Key:
ARE = assay: FLuc2P-NLucP reporter assay, ARE-driven construct (pCI-4.37) in HEK293 cells; format: cell-based; conditions: 100 μM tBHQ, 24 h
Method: A FLuc2P-NLucP reporter assay and compound test was carried out as follows. This protocol measures bioluminescence derived from both FLuc2P and NLucP. A purified DNA construct pCI-4.37 was transfected into HEK293 cells. Sixteen hours after transfection, the cells were trypsinized and dispensed at 2,000 cells/20 μL/well into two 384-well tissue culture treated white/solid bottom plates (Greiner Bio-One North America). After adding tert-Butylhydroquinone (tBHQ) (Sigma) or control DMSO, the assay plates were incubated at 37° C. for 24 hours before adding the ONE-GLO or NANO-GLO detection reagents (Promega). Luminescence from luciferase activity was detected by using a VIEWLUX plate reader (PerkinElmer).

[1] = tested on: cAMP-response element (CRE), adenylyl cyclase signaling; assay: Compound test, 24-point titration, 4×CRE-driven FLuc-P2A-RLuc (pCI-6.24), 384-well; format: cell-based; conditions: PTC124 on FLuc, BTS on RLuc; relative to non-treated control
Method: (§1) For the compound test, forskolin, PTC124 and BTS were prepared in a 24-point intraplate titration format and pre-diluted in the cell culture medium. Purified pCI-6.24 construct was transfected into GRIPTITE 293 MSR cells (Life Technologies). Sixteen hours post transfection, cells were trypsinized and then dispensed at 2,000 cells/15 μL/well in 384-well tissue culture treated white/solid bottom plates (Greiner Bio-One North America). Five μL of pre-diluted compound was transferred into assay plates, resulting in a final concentration ranging from 0.027 nM to 227 μM (forskolin) and 0.011 nM to 91 μM (PTC124 and BTS). The assay plates were incubated at 37° C. for 10 hours. FLuc and RLuc activities were then detected using DUAL-GLO reagent (Promega) and a VIEWLUX plate reader (PerkinElmer). Concentration-response curves and concentrations of half-maximal activity (EC50) for each compound were generated by using PRISM 4 software (GraphPad Software, Inc., La Jolla, Calif.).

[2] = tested on: PARK2 (Parkin) gene expression; assay: Compound library screening, Parkin coincidence reporter cell line (FLuc-P2A-NLuc in PARK2 locus, BE(2)-M17 cells), 1536-well; format: cell-based, human; conditions: 24 h, titration
Method: Construction of the Parkin coincidence reporter cell line by TALEN-mediated genome editing was carried out as follows. To generate a double-strand cleavage of the genomic DNA in the first codon of the PARK2 gene, constructs encoding transcription activator-like effector nuclease (TALEN) pairs (Right and Left) encoding components of the heterodimeric FokI nuclease were generated as described by Huang et al., Nature Biotechnology, 29: 699-700 (2011). The TALEN pair was designed to generate a double-strand cleavage at or near the first translation codon (ATG) within the Parkin gene. These constructs were transfected with Lipofectamine LTX (Life Technologies) into BE(2)-M17 cells (ATCC) […] along with a GFP-expressing marker plasmid and the coincidence reporter donor plasmid. After 48 hours of incubation in a tissue culture incubator, GFP-positive cells were sorted by FACS analysis and single clones were isolated and expanded. Once sufficient cell populations for each clone were achieved, analysis of correct genomic insertion of the Fluc-P2A-NLuc-PEST-PolyA coincidence reporter cassette that replaced the “ATGATAG” (SEQ ID NO: 362) sequence at the […] of the PARK2 gene exon 1 was ascertained by PCR and DNA sequencing of genomic DNA preparations (QIAGEN).
Compound library screening in 1536-well plates was carried out as follows. The Parkin coincidence reporter cell line was seeded at a density of 2000 cell/well into white, solid bottom, tissue-culture treated (Greiner Bio-One), 1536-well microplates in a total of 5 μL/well of culture medium. After a 16 hour incubation in a tissue-culture incubator, a compound pin tool (Wako) was used to transfer 20 nL of compound dissolved in DMSO for library plates to the assay plates. Compounds were present in either a 6 or 12-point titration in the library plates. DMSO vehicle, CCCP, and PTC-124 were also added to the designated control well. After a 24 hour incubation in the tissue culture incubator, the volume in each well of both plates was reduced to 2 μL with a microplate aspiration system (BioTek) and then 2 μL of Firefly Luciferase assay reagent (Promega) was added to every well each plate and luminescent signal from each well of each plate was measured on a VIEWLUX plate reader (PerkinElmer). Following the first read, 2 μL of NanoLuc assay reagent (Promega) including a proprietary firefly luciferase inhibitor (to quench the firefly reaction) was added to every well of each plate. After a second 15 minute incubation at room temperature, the NanoLuc signal from each well of each plate was measured on the VIEWLUX. Raw luminescent signal is expressed as a % of the positive control (10 uM CCCP for NanoLuc and 500 nM PTC-124 for FLuc).

p53 RE = assay: FLuc2P-NLucP reporter assay, p53 RE-driven construct (pCI-4.38) in HEK293 cells; format: cell-based; conditions: 10 μM etoposide, 24 h
Method: The FLuc2P-NLucP reporter assay and compound test was carried out as follows. This protocol measures bioluminescence derived from both FLuc2P and NLucP. The purified DNA construct pCI-4.38 was transfected into HEK293 cells and the cells were cultured as described in Example 1. Sixteen hours after transfection, the cells were trypsinized and then dispensed at 2,000 cells/20 μL/well into two 384-well tissue culture treated white/solid bottom plates (Greiner Bio-One North America). After adding Etoposide (Sigma) or control DMSO, the assay plates were incubated at 37° C. for 24 hours before adding the ONE-GLO or NANO-GLO detection reagents (Promega). Luminescence from luciferase activity was detected by using a VIEWLUX plate reader (PerkinElmer).

Parkin expression = conditions: previously demonstrated, Bouman et al. 2011; cited from earlier work
SV40 promoter = assay: Compound test, SV40-driven FLuc-P2A-RLuc construct (pCI-6.20); format: cell-based; conditions: pCI-6.20 construct
Method: as §1
This experiment was repeated with cells transfected with the pCl-6.20 construct, which encoded FLuc-P2A-RLuc under the control of the SV40 […].

[3] = tested on: cAMP-response element (CRE) / CREB pathway; assay: LOPAC1280 qHTS, 4×CRE-driven FLuc-P2A-RLuc coincidence reporter (pCI-6.24) in GripTite 293 MSR cells; format: cell-based; conditions: for EC50: GripTite 293 MSR
Method: This protocol measures bioluminescence derived from both FLuc and RLuc expression from a single assay. […] Sixteen hours after transfection, cells were trypsinized and then dispensed at 2,000 cells/20 μL/well in 384-well tissue culture treated white/solid bottom plates (Greiner Bio-One North America, Monroe, N.C.). The assay plates were incubated at 37° C. for 10 hours before adding the DUAL-GLO detection reagent (Promega). Luminescence from luciferase activity was detected by using a VIEWLUX plate reader (PerkinElmer, Waltham, Mass.).
Sixteen hours after transfection, cells were trypsinized and then dispensed at 500 cells/4 μL/well in 1,536-well tissue culture treated white/solid bottom plates (Greiner Bio-One North America) using a multidrop combi dispenser (Thermo Fisher Scientific). […] The assay plates were incubated at 37° C. for 10 hours before adding the DUAL-GLO detection reagent (3.5 μL+3.5 μL for each well) (Promega). Luminescence from luciferase activity was detected by using VIEWLUX (PerkinElmer). Each experimental plate contained forskolin as a positive control and DMSO as a negative control. Percentage activity was defined as the percentage signal relative to forskolin (100%) and DMSO (0%).

## CC(C)(C)c1cc(O)ccc1O [tBHQ, tert-Butylhydroquinone]
ARE
  reporter output vs DMSO: greater RLU values

## O=C(O)c1cccc(-c2noc(-c3ccccc3F)n2)c1 [PTC124]
[1]
  effect on reporter activity by reporter stabilization: increase the activity of the reporters
[2]
  coincident reporter response (FLuc and NLuc): do not elicit a coincident reporter response
  signal obtained through reporter interference: FLuc signal is obtained through reporter interference

## COc1cc([C@@H]2c3cc4c(cc3[C@@H](O[C@@H]3O[C@@H]5CO[C@@H](C)O[C@H]5[C@H](O)[C@H]3O)[C@H]3COC(=O)[C@H]23)OCO4)cc(OC)c1O [etoposide, Etoposide]
p53 RE
  reporter output vs DMSO: greater RLU values

## Tunicamycin
Parkin expression
  induction of Parkin expression: induce Parkin expression

## Cc1ccc(S(=O)(=O)NCc2ccccc2)cc1 [BTS]
[1]
  effect on reporter activity by reporter stabilization: increase the activity of the reporters

## N#CC(C#N)=NNc1cccc(Cl)c1 [carbonyl cyanide m-chlorophenyl hydrazone]
Parkin expression
  induction of Parkin expression: induce Parkin expression

## C=C[C@@]1(C)CC(=O)[C@]2(O)[C@@]3(C)[C@@H](O)CCC(C)(C)[C@@H]3[C@H](O)[C@H](OC(C)=O)[C@@]2(C)O1 [cpd 19, Forkskolin]
SV40 promoter
  activity where reporter expression was driven by the SV40 promoter: inactive
[3]; FLuc EC50 / RLuc EC50, Table 5
  Ratio F/R: 0.90
[3]; 10 h, Table 5, coincident activators, FLuc readout, 10 h, ~4 nM to 57 μM, read-out: FLuc EC50
  EC50: 1320 nM
[3]; 10 h, Table 5, coincident activators, RLuc readout, 10 h, ~4 nM to 57 μM, read-out: RLuc EC50
  EC50: 1470 nM
[3]; FLuc readout, 1536 interplate format, read-out: Intraplate Forskolin Control Mean
  EC50: 860 nM
[3]; RLuc readout, 1536 interplate format, read-out: Intraplate Forskolin Control Mean
  EC50: 880 nM
